Reference: patent US9084782B2, “Chemical inhibitors of cholesterol biosynthesis and venous angiogenesis” (The Regents of the University of California, priority 2011, dated 2015)
Entries after “also recorded” stand apart in the source; their conditions may differ.

How the values were obtained:
primordial germ cells = test: Primordial germ cell migration, in situ hybridization with nanos probe; format: in vivo, zebrafish; details: 10 μM aplexone
Procedure: (§1) A,B,C, Overall phenotype of control and aplexone-treated embryos at 30 hpf. A′,B′,C′, Vasculature in trunk. […] D-E, Germ cells in control and aplexone treated embryos at 24 hpf were detected by in situ hybridization using the nanos probe. F, The percentage of embryos with ectopic primordial germ cells in control (n=26), 5 μM (n=13), and 10 μM (n=14) aplexone-treated embryos. […] I, The percentage of embryos with cardia bifida in control (n=16) and 10 μM-(n=17), 20 μM-(n=17) and 30 μM-(n=18) aplexone-treated embryos.

[1] = system: Tg(kdrl:GFP) zebrafish embryos; test: Primary ISV formation (arterial-derived angiogenesis) in zebrafish embryos; format: in vivo
From the text: Images of GFP expression in Tg(kdrl:GFP) embryos were acquired using a Zeiss SV-11 epifluorescence microscope. Confocal images were acquired using a Carl Zeiss Laser Scanning Systems LSM510 equipped with 20× air, 20× water or 40× water immersion objectives. For single time point confocal images, embryos were anesthetized with 0.01% tricaine and embedded in 1% agarose. When capturing time-lapse confocal movies, embryos were mounted in 3.5% methylcellulose (Sigma-Aldrich) and imaged for 5 hrs on a heated stage at 28.5° C. The images obtained were analyzed using the Zeiss LSM Image Brower version 4 and Image J.
A synthetic chemical library containing 168 compounds (Castellano et al., 2007) and 300 chemicals from Biomol International LP, consisting of 72 ion channel inhibitors (Cat No. 2805), 84 kinase/phosphatase inhibitors (Cat No. 2831), 84 orphan ligands (Cat No. 2825), and 60 endocannabinoids (Cat No. 2801) were screened. […]
To understand whether angiogenesis from arterial and venous ECs are under different genetic controls we screened a collection of small molecules for compounds that preferentially suppress angiogenesis from exclusively one cell type. In this screen, we used the primary ISV sprouts as the readout for arterial-derived angiogenesis, and the CVP and secondary ISV sprouts as indicators of venous-derived angiogenesis. […]

HMGCR pathway [2] = test: Quantitative RT-PCR of aplexone-treated embryos; format: in vivo, zebrafish; details: qPCR, GAPDH-normalized
Procedure: (§2) Embryos at the 5-somite stage were treated with 0.4% DMSO (control) or 10 μM of aplexone in 0.4% DMSO and total RNA was isolated using the RNAeasy micro kit (Qiagen) at 30 hpf. Microarray analysis was performed in triplicate using the Affymetrix Zebrafish GeneChip, representing 15,617 genes. Synthesis and labeling of antisense RNA was performed as recommended by the array manufacturer using kits from Invitrogen for double-stranded cDNA synthesis, Enzo Life Sciences for transcription and labeling of antisense RNA and Affymetrix for probe purification and hybridization controls. Microarray hybridization data were analyzed using scripts written in the statistical programming language R (Team, 2009). Differentially expressed genes (DEGs) were identified using a linear model and multiple testing correction from the limma package (Smyth, 2004). The expression values were obtained using the robust multi array algorithm (Irizarry et al., 2003).
Quantitative RT-PCR was performed as follows. First strand cDNA was synthesized using the SuperScript™ first-strand synthesis system for RT-PCR (Invitrogen) and relative expression levels of genes were determined using iQ SYBR Green Supermix and an iCycler (Bio-Rad Laboratories). GAPDH was used for normalization.

[3] = system: caudal vein endothelial cells; test: Caudal vein endothelial cell migration, time-lapse confocal imaging; format: in vivo, zebrafish; details: 10 μM aplexone
Procedure: A-B, Representative images of the caudal vein of control (A) and 10 μM aplexone-treated embryos (B) at 30 hpf. Images were overlaid with the endothelial cell migration path inferred from time-lapse confocal movies taken from 25 hpf to 30 hpf. The migration of caudal vein endothelial cells was traced using the Manual Tracking feature of ImageJ and the positions of ISV sprouting points were used as references to adjust for the growth of embryos. C, The distance of endothelial cell migration in caudal vein of control and aplexone-treated Tg(kdrl:GFP) embryos. Asterisk indicates p<0.05. (D) The window of application of aplexone. Grey bars represent the developmental stages during which Tg(kdrl:GFP) embryos were exposed to 10 μM aplexone and the caudal vein phenotype was analyzed at 48 hpf. […] A “−” indicates the formation of normal caudal vein plexus.
Images of GFP expression in Tg(kdrl:GFP) embryos were acquired using a Zeiss SV-11 epifluorescence microscope. Confocal images were acquired using a Carl Zeiss Laser Scanning Systems LSM510 equipped with 20× air, 20× water or 40× water immersion objectives. For single time point confocal images, embryos were anesthetized with 0.01% tricaine and embedded in 1% agarose. […] The images obtained were analyzed using the Zeiss LSM Image Brower version 4 and Image J. […]

HMGCR pathway [4] = test: Microarray expression profiling of aplexone-treated embryos (Affymetrix Zebrafish GeneChip); format: in vivo; details: 10 μM, RNA at 30 hpf
Procedure: as §2

cardiomyocytes = test: Cardiomyocyte migration / heart tube formation in Tg(myl7:GFP) embryos; format: in vivo, zebrafish; details: 30 μM aplexone
Procedure: as §1

Structure (SMILES): CC(=O)C1=CCC(c2ccccc2)N(S(=O)(=O)c2ccc(C)cc2)C1 (centres unmarked) [aplexone]
- germ cell migration (primordial germ cells): defect in germ cell migration
- development of primary ISVs ([1]; 10 μM aplexone): indistinguishable; also recorded: does not affect the development of primary ISVs
- development of primary ISVs ([1]; 30 μM aplexone): shorter and never reach the dorsal side of the somites; also recorded: inhibits the growth of primary ISVs
- fold change 3-hydroxy-3-methylglutaryl-Coenzyme A reductase (HMGCR) (HMGCR pathway [2]): 6.7 fold
- fold change 3-hydroxy-3-methylglutaryl-Coenzyme A synthase 1 (HMGCS) (HMGCR pathway [2]): 2.8 fold
- fold change 7-dehydrocholesterol reductase (DHCR7) (HMGCR pathway [2]): 2.5 fold
- fold change cytochrome P450, family 51 (CYP51) (HMGCR pathway [2]): 4.4 fold
- fold change farnesyl diphosphate synthetase (FDPS) (HMGCR pathway [2]): 2.2 fold
- fold change insulin induced gene 1 (INSIG) (HMGCR pathway [2]): 5.1 fold
- fold change sterol-C4-methyl oxidase-like (SC4MOL) (HMGCR pathway [2]): 5.6 fold
- maturation of caudal vein EC filopodia into angiogenic sprouts [3]: never matured into angiogenic sprouts
- average EC migration distance during CVP formation ([3]; between 25 hpf and 30 hpf): 35 μm
- fold change 3-hydroxy-3-methylglutaryl-Coenzyme A synthase 1 (HMGCS) (HMGCR pathway [4]): 2.0 fold
- fold change Krueppel-like factor 11 (TIEG-2) (HMGCR pathway [4]): 2.1 fold
- fold change carbonyl reductase 1-like (HMGCR pathway [4]): 2.1 fold
- fold change coronin, actin binding protein, 1A (HMGCR pathway [4]): −2.1 fold
- fold change cytochrome P450, family 51 (CYP51) (HMGCR pathway [4]): 2.8 fold
- fold change farnesyl diphosphate synthetase (FDPS) (HMGCR pathway [4]): 2.0 fold
- fold change fatty acid desaturase 2 (HMGCR pathway [4]): 2.4 fold
- fold change glutamate dehydrogenase 1a (HMGCR pathway [4]): 2.2 fold
- fold change glutathione S-transferase (HMGCR pathway [4]): 3.2 fold
- fold change glutathione reductase like (HMGCR pathway [4]): 2.2 fold
- fold change insulin induced gene 1 (INSIG) (HMGCR pathway [4]): 2.6 fold
- fold change insulin-like growth factor binding protein 1 (HMGCR pathway [4]): 2.1 fold
- fold change lymphocyte cytosolic plastin 1 (HMGCR pathway [4]): −2.7 fold
- fold change lysozyme (HMGCR pathway [4]): −2.7 fold
- fold change myosin regulatory light chain interacting protein (HMGCR pathway [4]): −2.1 fold
- fold change nephrosin (HMGCR pathway [4]): −2.4 fold
- fold change selenoprotein W (HMGCR pathway [4]): 3.1 fold
- fold change sterol-C4-methyl oxidase-like (SC4MOL) (HMGCR pathway [4]): 2.0 fold
- fold change sulfotransferase (HMGCR pathway [4]): 3.0 fold
- fusion of cardiac primordia / cardiomyocyte migration to midline (cardiomyocytes): defects in the fusion of the bilaterally positioned cardiac primordia; also recorded: fail to migrate to midline
